# Measured values as given in US8916702B2 (priority 2012, dated 2014).
# pEC50: −log10 of the molar value.
# Test system: HCV pseudoparticles (genotype 1a HCV E1 and E2 envelope, H77C isolate)
# Experiment: microbe, parasite or virus in culture
# Assay type: cell-based
# Details: Hepatitis C virus, Huh-7, 48 h, HCV pseudoparticle infection of Huh7 cells, luciferase 2 days after infection; average of duplicates
row,Structure (SMILES),pEC50
1,C=Cc1ccc(NC(=O)C(=O)NCC(C)(C)CNC(=O)c2ccc(Nc3nc(NC4(c5ccc(Cl)cc5)CC4)nc(OCC(F)(F)F)n3)cc2)cc1 [Compound 1604],10.70
2,COC(=O)[C@H](CNC(=O)C(=O)Nc1ccc(C(F)(F)F)cc1)NC(=O)c1ccc(Nc2nc(NC3(c4ccc(Cl)cc4)CC3)nc(OCC(F)(F)F)n2)cc1 [Compound 1255],8.96

# Same assay, conditions: Hepatitis C virus, Huh-7, 48 h, HCV pseudoparticles (genotype 1a, H77C) in Huh7 cells; average of duplicate; luciferase 2 days after infection
row,Structure (SMILES),pEC50
1,Cc1cc(C)nc(N(C)c2ccc(NC(=O)C(=O)NCC[C@H](NC(=O)c3ccc(Nc4nc(NC5(c6ccc(Cl)cc6)CC5)nc(OCC(F)(F)F)n4)cc3)C(=O)O)cc2)n1 [Compound 3234],9.62
2,O=C(NCC(O)CNC(=O)c1ccc(Nc2nc(NC3(c4ccc(Cl)cc4)CC3)nc(OCC(F)(F)F)n2)cc1)C(=O)Nc1ccccc1 (stereo not drawn) [Compound 3460],10.80
3,COC(=O)/C=C/c1ccccc1NC(=O)C(=O)NCC(C)(C)CNC(=O)c1ccc(Nc2nc(NC3(c4ccc(Cl)cc4)CC3)nc(OCC(F)(F)F)n2)cc1 [Compound 3138],9.34

# Same assay, conditions: Hepatitis C virus, Huh-7, 48 h, read-out: Activity (EC50 class), HCV pseudoparticle infection of Huh7 cells, luciferase 2 days after infection; EC50 expressed as class A/B
row,Structure (SMILES),pEC50
1,O=C(NCC[C@H](NC(=O)c1ccc(Nc2nc(NC3(c4ccc(Cl)cc4)CC3)nc(OCC(F)(F)F)n2)cc1)C(=O)O)C(=O)Nc1cccc(F)c1 [Compound 1269],8.00 to 11.00
2,COC(=O)[C@H](CNC(=O)C(=O)NC(C)(C)Cc1ccc(F)cc1)NC(=O)c1ccc(Nc2nc(NC3(c4ccc(Cl)cc4)CC3)nc(OCC(F)(F)F)n2)cc1 [Compound 1296],8.00 to 11.00
3,COC(=O)[C@H](CCNC(=O)C(=O)NC1CCCC(C)C1)NC(=O)c1ccc(Nc2nc(NC3(c4ccc(Cl)cc4)CC3)nc(OCC(F)(F)F)n2)cc1 (stereo partly drawn) [Compound 1076],8.00 to 11.00
4,Cc1ccc(CCNC(=O)C(=O)NC[C@H](NC(=O)c2ccc(Nc3nc(NC4(c5ccc(Cl)cc5)CC4)nc(OCC(F)(F)F)n3)cc2)C(=O)O)cc1 [Compound 1404],8.00 to 11.00
5,C[C@]12C3C1[C@H]3C[C@@H]2NC(=O)C(=O)NCC[C@H](NC(=O)c1ccc(Nc2nc(NC3(c4ccc(Cl)cc4)CC3)nc(OCC(F)(F)F)n2)cc1)C(=O)O (stereo partly drawn) [Compound 1117],8.00 to 11.00
6,COC(=O)[C@H](CNC(=O)C(=O)NCCc1ccc(F)cc1)NC(=O)c1ccc(Nc2nc(NC3(c4ccc(Cl)cc4)CC3)nc(OCC(F)(F)F)n2)cc1 [Compound 1292],8.00 to 11.00
7,"CNC(=O)C(=O)NCC[C@H](NC(=O)c1ccc(Nc2nc(NC3(c4ccc(Cl)cc4)CC3)nc(OCC(F)(F)F)n2)cc1)C(=O)OC [Compound 1010, (S)-methyl 2-(4-(4-(1-(4-chlorophenyl)cyclopropylamino)-6-(2,2,2-trifluoroethoxy)-1,3,5-triazin-2-ylamino)benzamido)-4-(2-(methylamino)-2-oxoacetamido)butanoate]",8.00 to 11.00
8,COC(=O)[C@H](CNC(=O)C(=O)Nc1cnn(C)c1)NC(=O)c1ccc(Nc2nc(NC3(c4ccc(Cl)cc4)CC3)nc(OCC(F)(F)F)n2)cc1 [Compound 1248],8.00 to 11.00
9,CC(C)(CNC(=O)C(=O)Nc1cc(F)cc(F)c1)CNC(=O)c1ccc(Nc2nc(NC3(c4ccc(Cl)cc4)CC3)nc(OCC(F)(F)F)n2)cc1 [Compound 1540],8.00 to 11.00
10,O=C(NCC[C@H](NC(=O)c1ccc(Nc2nc(NC3(c4ccc(Cl)cc4)CC3)nc(OCC(F)(F)F)n2)cc1)C(=O)O)C(=O)Nc1ccc(F)c(F)c1F [Compound 1509],8.00 to 11.00
11,C=Cc1ccc(NC(=O)C(=O)NCC(C)(C)CNC(=O)c2ccc(Nc3nc(NC4(c5ccc(Cl)cc5)CC4)nc(OCC(F)(F)F)n3)cc2)cc1 [Compound 1604],8.00 to 11.00
12,COC(=O)[C@H](CNC(=O)C(=O)Nc1ccc(C(F)(F)F)cc1)NC(=O)c1ccc(Nc2nc(NC3(c4ccc(Cl)cc4)CC3)nc(OCC(F)(F)F)n2)cc1 [Compound 1255],8.00 to 11.00
13,COC(=O)[C@@H](CCNC(=O)C(=O)NCC1(NC(=O)OC(C)(C)C)CC1)NC(=O)c1ccc(Nc2nc(NC3(c4ccc(Cl)cc4)CC3)nc(OCC(F)(F)F)n2)cc1 [Compound 1381],8.00 to 11.00
14,COC(=O)[C@H](CNC(=O)C(=O)NCC1CCCc2ccccc21)NC(=O)c1ccc(Nc2nc(NC3(c4ccc(Cl)cc4)CC3)nc(OCC(F)(F)F)n2)cc1 (stereo partly drawn) [Compound 1299],8.00 to 11.00
15,CN1CCN(CC2(CNC(=O)C(=O)NCC[C@H](NC(=O)c3ccc(Nc4nc(NC5(c6ccc(Cl)cc6)CC5)nc(OCC(F)(F)F)n4)cc3)C(=O)O)CC2)CC1 [Compound 1432],8.00 to 11.00
16,O=C(NC[C@H](NC(=O)c1ccc(Nc2nc(NC3(c4ccc(Cl)cc4)CC3)nc(OCC(F)(F)F)n2)cc1)C(=O)O)C(=O)N[C@@H]1C[C@@H]2CC[C@H]1C2 [Compound 1080],8.00 to 11.00
17,Cn1nccc1NC(=O)C(=O)NC[C@H](NC(=O)c1ccc(Nc2nc(NC3(c4ccc(Cl)cc4)CC3)nc(OCC(F)(F)F)n2)cc1)C(=O)O [Compound 1368],8.00 to 11.00

# Same assay, conditions: Hepatitis C virus, Huh-7, 48 h, read-out: Activity (EC50 class), HCV pseudoparticles, Huh7 cells, luciferase 2 days after infection; average of duplicates
row,Structure (SMILES),pEC50
1,COC(=O)[C@H](CNC(=O)C(=O)Nc1cccc(Oc2ccccn2)c1)NC(=O)c1ccc(Nc2nc(NC3(c4ccc(Cl)cc4)CC3)nc(OCC(F)(F)F)n2)cc1 [Compound 3726],8.00 to 11.00
2,Cc1cccc(NC(=O)C(=O)NC[C@H](NC(=O)c2ccc(Nc3nc(NC4(c5ccc(Cl)cc5)CC4)nc(OCC(F)(F)F)n3)cc2)C(=O)Cl)c1 [Compound 3743],8.00 to 11.00
3,Cc1cccc2sc(NC(=O)C(=O)NCC(C)(C)CNC(=O)c3ccc(Nc4nc(NC5(c6ccc(Cl)cc6)CC5)nc(OCC(F)(F)F)n4)cc3)nc12 [Compound 3805],8.00 to 11.00

# Same assay, conditions: Hepatitis C virus, Huh-7, read-out: Activity (EC50 class), HCV pseudoparticles (genotype 1a, H77C) in Huh7 cells; EC50 expressed as class A/B
row,Structure (SMILES),pEC50
1,Cc1cc(C)nc(N(C)c2ccc(NC(=O)C(=O)NCC[C@H](NC(=O)c3ccc(Nc4nc(NC5(c6ccc(Cl)cc6)CC5)nc(OCC(F)(F)F)n4)cc3)C(=O)O)cc2)n1 [Compound 3234],8.00 to 11.00
2,CC(C)(CNC(=O)C(=O)Nc1cccc2ccccc12)CNC(=O)c1ccc(Nc2nc(NC3(c4ccc(Cl)cc4)CC3)nc(OCC(F)(F)F)n2)cc1 [Compound 3030],8.00 to 11.00
3,O=C(NCC(O)CNC(=O)c1ccc(Nc2nc(NC3(c4ccc(Cl)cc4)CC3)nc(OCC(F)(F)F)n2)cc1)C(=O)Nc1ccccc1 (stereo not drawn) [Compound 3460],8.00 to 11.00
4,O=C(NC[C@H](NC(=O)c1ccc(Nc2nc(NC3(c4ccc(Cl)cc4)CC3)nc(OCC(F)(F)F)n2)cc1)C(=O)O)C(=O)Nc1ccc(Cn2cncn2)cc1 [Compound 3267],8.00 to 11.00
5,COC(=O)[C@H](CCNC(=O)C(=O)Nc1ccc(-c2csc(N3CCOCC3)n2)cc1)NC(=O)c1ccc(Nc2nc(NC3(c4ccc(Cl)cc4)CC3)nc(OCC(F)(F)F)n2)cc1 [Compound 3318],8.00 to 11.00
6,Cc1nnnn1-c1ccc(NC(=O)C(=O)NCC[C@H](NC(=O)c2ccc(Nc3nc(NC4(c5ccc(Cl)cc5)CC4)nc(OCC(F)(F)F)n3)cc2)C(=O)O)cc1 [Compound 3236],8.00 to 11.00
7,COC(=O)[C@H](CNC(=O)C(=O)Nc1ccc(Cn2ccnc2)cc1)NC(=O)c1ccc(Nc2nc(NC3(c4ccc(Cl)cc4)CC3)nc(OCC(F)(F)F)n2)cc1 [Compound 3202],8.00 to 11.00
8,COC(=O)[C@H](CNC(=O)C(=O)Nc1ccc(CN2CCCCC2)cc1)NC(=O)c1ccc(Nc2nc(NC3(c4ccc(Cl)cc4)CC3)nc(OCC(F)(F)F)n2)cc1 [Compound 3196],8.00 to 11.00
9,COC(=O)[C@H](CCNC(=O)C(=O)Nc1ccc(-c2ncco2)cc1)NC(=O)c1ccc(Nc2nc(NC3(c4ccc(Cl)cc4)CC3)nc(OCC(F)(F)F)n2)cc1 [Compound 3326],8.00 to 11.00
10,COC(=O)[C@H](CCNC(=O)C(=O)Nc1ccc(-c2ccccc2C)cc1)NC(=O)c1ccc(Nc2nc(NC3(c4ccc(Cl)cc4)CC3)nc(OCC(F)(F)F)n2)cc1 [Compound 3304],8.00 to 11.00
11,COC(=O)[C@H](CNC(=O)C(=O)Nc1ccc(-n2cccn2)cc1)NC(=O)c1ccc(Nc2nc(NC3(c4ccc(Cl)cc4)CC3)nc(OCC(F)(F)F)n2)cc1 [Compound 3108],8.00 to 11.00
12,COC(=O)[C@H](CCNC(=O)C(=O)Nc1ccc(Cn2cccn2)cc1)NC(=O)c1ccc(Nc2nc(NC3(c4ccc(Cl)cc4)CC3)nc(OCC(F)(F)F)n2)cc1 [Compound 3312],8.00 to 11.00
13,CC(C)(CNC(=O)C(=O)NCc1ccc(Cl)cc1)CNC(=O)c1ccc(Nc2nc(NC3(c4ccc(Cl)cc4)CC3)nc(OCC(F)(F)F)n2)cc1 [Compound 3009],8.00 to 11.00
14,CC(C)(CNC(=O)C(=O)Nc1ccc2c(c1)CCCC2=O)CNC(=O)c1ccc(Nc2nc(NC3(c4ccc(Cl)cc4)CC3)nc(OCC(F)(F)F)n2)cc1 [Compound 3263],8.00 to 11.00
15,COC(=O)[C@H](CNC(=O)C(=O)Nc1ccc(S(=O)(=O)N2CCCC2)cc1)NC(=O)c1ccc(Nc2nc(NC3(c4ccc(Cl)cc4)CC3)nc(OCC(F)(F)F)n2)cc1 [Compound 3106],8.00 to 11.00
16,Cc1ccc(NC(=O)C(=O)NCC(C)CNC(=O)c2ccc(Nc3nc(NC4(c5ccc(Cl)cc5)CC4)nc(OCC(F)(F)F)n3)cc2)cc1 (stereo not drawn) [Compound 3353],8.00 to 11.00
17,CC(C)(CNC(=O)C(=O)Nc1ccccc1-n1cccn1)CNC(=O)c1ccc(Nc2nc(NC3(c4ccc(Cl)cc4)CC3)nc(OCC(F)(F)F)n2)cc1 [Compound 3015],8.00 to 11.00
18,CC(C)(CNC(=O)C(=O)Nc1ccccc1Oc1ccccc1)CNC(=O)c1ccc(Nc2nc(NC3(c4ccc(Cl)cc4)CC3)nc(OCC(F)(F)F)n2)cc1 [Compound 3139],8.00 to 11.00
19,CC(C)(CNC(=O)C(=O)NCc1ccc(C(=N)N)cc1)CNC(=O)c1ccc(Nc2nc(NC3(c4ccc(Cl)cc4)CC3)nc(OCC(F)(F)F)n2)cc1 [Compound 3043],8.00 to 11.00
20,CC(CNC(=O)C(=O)NC1CCCCC1)CNC(=O)c1ccc(Nc2nc(NC3(c4ccc(Cl)cc4)CC3)nc(OCC(F)(F)F)n2)cc1 (stereo not drawn) [Compound 3472],8.00 to 11.00
21,O=C(NCC[C@H](NC(=O)c1ccc(Nc2nc(NC3(c4ccc(Cl)cc4)CC3)nc(OCC(F)(F)F)n2)cc1)C(=O)O)C(=O)Nc1ccc(C(O)N2CCOCC2)cc1 (stereo partly drawn) [Compound 3229],6.00 to 8.00
22,Cc1ccc(NC(=O)C(=O)NCC(O)CNC(=O)c2ccc(Nc3nc(NC4(c5ccc(Cl)cc5)CC4)nc(OCC(F)(F)F)n3)cc2)cc1Cl (stereo not drawn) [Compound 3466],8.00 to 11.00
23,COc1ccc(-c2ccccc2)c(NC(=O)C(=O)NCC(C)(C)CNC(=O)c2ccc(Nc3nc(NC4(c5ccc(Cl)cc5)CC4)nc(OCC(F)(F)F)n3)cc2)c1 [Compound 3014],8.00 to 11.00
24,COC(=O)[C@H](CNC(=O)C(=O)Nc1ccc(-c2ccc(C)cc2)cc1)NC(=O)c1ccc(Nc2nc(NC3(c4ccc(Cl)cc4)CC3)nc(OCC(F)(F)F)n2)cc1 [Compound 3188],8.00 to 11.00
25,CC(F)Oc1ccc(NC(=O)C(=O)NC[C@H](NC(=O)c2ccc(Nc3nc(NC4(c5ccc(Cl)cc5)CC4)nc(OCC(F)(F)F)n3)cc2)C(=O)O)cc1 (stereo partly drawn) [Compound 3298],8.00 to 11.00
26,COC(=O)/C=C/c1ccccc1NC(=O)C(=O)NCC(C)(C)CNC(=O)c1ccc(Nc2nc(NC3(c4ccc(Cl)cc4)CC3)nc(OCC(F)(F)F)n2)cc1 [Compound 3138],8.00 to 11.00
